This assay has as its target human SSTR2 (Homo sapiens (Human), UniProt P30874). Description: Human SSTR2 intracellular cAMP functional assay for agonists (HTRF). The class given is cell-based. The procedure, abridged:
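Cells bearing human SSTR2 exposed to compound for 20 minutes at 37 °C; after lysis, cAMP measured by time-resolved fluorescence (HTRF) and converted via a standard curve. EC50 calculated from cAMP versus compound concentration.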

Where [1] appears, read: CHO-K1 cells stably expressing human SSTR2, NKH477-stimulated cAMP, read-out: EC50 (inhibition of cAMP activities via human SST2R).

Our source for the EC50 values is patent US10351547B2, “Somatostatin modulators and uses thereof” (priority 2016, dated 2019).

Where two headings read alike, the source gives them in different places. Bounds are passed on as bounds.

Chain of human SSTR2 (P30874 whole entry): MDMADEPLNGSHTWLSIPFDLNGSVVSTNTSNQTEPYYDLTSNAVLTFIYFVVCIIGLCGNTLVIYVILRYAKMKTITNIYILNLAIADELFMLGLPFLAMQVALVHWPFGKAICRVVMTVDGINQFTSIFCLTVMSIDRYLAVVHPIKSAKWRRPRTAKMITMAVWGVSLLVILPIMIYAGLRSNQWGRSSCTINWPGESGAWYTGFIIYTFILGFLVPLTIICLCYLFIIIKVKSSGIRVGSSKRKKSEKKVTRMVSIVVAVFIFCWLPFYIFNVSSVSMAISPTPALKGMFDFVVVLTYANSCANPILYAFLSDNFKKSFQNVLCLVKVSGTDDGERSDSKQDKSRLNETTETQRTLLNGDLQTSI

`NC1CCN(c2c(-c3cc(F)cc(F)c3)cnc3ccc(-c4cc(F)c5[nH]c(=O)[nH]c5c4)nc23)CC1` [3-9, 6-[8-(4-aminopiperidin-1-yl)-7-(3,5-difluorophenyl)-1,5-naphthyridin-2-yl]-4-fluoro-2,3-dihydro-1H-1,3-benzodiazol-2-one]: the EC50 under setting [1] is less than 0.01 µM. `N#Cc1cccc(-c2cnc3ncc(-c4cc(F)cc(F)c4)c(N4CCC(N)CC4)c3c2)c1O` [4-1, 3-[5-(4-aminopiperidin-1-yl)-6-(3,5-difluorophenyl)-1,8-naphthyridin-3-yl]-2-hydroxybenzonitrile]: the EC50 lay within 0.01 to 0.1 µM. With `Cc1cc(F)cc(-c2cnc3ncc(-c4cccc(C#N)c4O)cc3c2N2CCC(N)CC2)c1` [4-2, 3-[5-(4-aminopiperidin-1-yl)-6-(3-fluoro-5-methylphenyl)-1,8-naphthyridin-3-yl]-2-hydroxybenzonitrile], the EC50 under setting [1] is less than 0.01 µM. The same measure, in the same setting: the result for `Cc1cc(F)cc(-c2cnc3ncc(-c4cc(F)cc(C#N)c4O)cc3c2N2CCC(N)CC2)c1` [4-3, 3-[5-(4-aminopiperidin-1-yl)-6-(3-fluoro-5-methylphenyl)-1,8-naphthyridin-3-yl]-5-fluoro-2-hydroxybenzonitrile] reads less than 0.01 µM; that for `Cc1cc(Cl)cc(-c2cnc3ncc(-c4cccc(C#N)c4O)cc3c2N2CCC(N)CC2)c1` [4-4, 3-[5-(4-aminopiperidin-1-yl)-6-(3-chloro-5-methylphenyl)-1,8-naphthyridin-3-yl]-2-hydroxybenzonitrile], less than 0.01 µM.
